Measured values taken from patent US20250311722A1, “IMPROVED BIOCIDE” (Purgos ApS, priority 2022, published 2025).

How the values were obtained:
[1] = system: rat; assay: LD50 (rat, oral); assay type: in vivo; details: extrapolated from rat LD50 4250 mg/kg
[2] = system: bacteria; assay: Tap water and polluted water treated with NDBA: bacteria count and BSI; assay type: cell-based; details: 300 grams water, 32° C.
[3] = system: bacteria; assay: PVB dispersion treated with NBDA: microbial contamination by cATP (LuminUltra); assay type: cell-based; parameters: bacteria count: unit not given here
[4] = system: bacteria; assay: NBDA in different PVB dispersions at 32° C., ATP analysis (LuminUltra); assay type: cell-based; parameters: bacteria count 6 mo after adding NBDA / bacteria count 9 mo after adding NBDA / bacteria count 1 d after adding NBDA / bacteria count 1 wk after adding NBDA / bacteria count 1 mo after adding NBDA / bacteria count 3 mo after adding NBDA / bacteria count after 4 mo after addition of NBDA / bacteria count after 6 mo after addition of NBDA: unit not given here; details: 0.5% NBDA; for bacteria count after 4 mo after addition of NBDA / bacteria count after 4 wk after addition of NBDA / bacteria count after 6 mo after addition of NBDA / bacteria count after 8 wk after addition of NBDA / bacteria count after 9 mo after addition of NBDA / bacteria count after 12 mo after addition of NBDA: long term
Experimental: The amines selected from stock samples was made from factory prepared stock and sealed solutions delivered in technical quality (95-99.9%). […] Tertiary amine, water and PVB-dispersion was mechanically stirred in IKA vertical fixed blade stirrer for sampling in 2-5 minutes. Conditions was industrial clean, meaning no special precautions was taken to prevent contamination, except normal cleanliness and between operations dishwashing procedures. Working temperatures was 20-25 degre Celsius, and all incubations was made in thermostatic 32-degree Celsius incubator ovens for bottled flasks and open petri dishes. […] The protocol is provided by LuminUltra Technologies. Basically all tested dispersions are manufactured in same way, with only differences in additives, and the variations of origin/source of the waste material (See Example 1). However the specification of the SharkDispersions-all have same basic composition since the stability of the dispersion forces this. The in situ contamination of the production batches may also vary in handling and different storage methods in flasks, IBC's and tanks. In all production the dispersion before treated with tertiary amine is pasteurized due to the general level of production temperatures +90 degrees for several minutes. The biocidal effectivity of NBDA in different PVB dispersions was measured as explained above.

[5] = 0.50% NBDA, 25° C.(RT), after 1 mo
[6] = 0.50% NBDA, 25° C.(RT), after 1 wk
[7] = 0.50% NBDA, 25° C.(RT), after 3 mo
[8] = 0.50% NBDA, 25° C.(RT), after 6 mo
[9] = 0.50% NBDA, 25° C.(RT), after 1 d
[10] = 1.00% NBDA, 25° C.(RT), after 1 mo
[11] = 1.00% NBDA, 25° C.(RT), after 1 wk
[12] = 1.00% NBDA, 25° C.(RT), after 3 mo
[13] = 1.00% NBDA, 25° C.(RT), after 6 mo
[14] = 1.00% NBDA, 25° C.(RT), after 1 d
[15] = PVB dispersion FX2, 32° C., with 0.5% peroxide
[16] = PVB dispersion FX2, 32° C., without peroxide
[17] = PVB dispersion FX6, 32° C., with 0.5% peroxide
[18] = PVB dispersion FX6, 32° C., without peroxide
[19] = PVB dispersion SX, 32° C., with 0.5% peroxide
[20] = PVB dispersion SX, 32° C., without peroxide
[21] = PVB dispersion WX2s, 32° C., with 0.5% peroxide
[22] = PVB dispersion WX2s, 32° C., without peroxide
[23] = PVB dispersion WX, 32° C., with 0.5% peroxide
[24] = PVB dispersion WX, 32° C., without peroxide

CCCCN(CCO)CCO [NBDA, N-butyldiethanolamine]
human consummation equivalent to LD50 [1]: 319 gram pr 75 kg
BSI ([2]; Polluted water + 0.5%): 48
bacteria count ([2]; Polluted water + 0.5%): 56.2
BSI ([2]; Tapwater + 0.5%): 56
bacteria count ([2]; Tapwater + 0.5%): 7.35
BSI [3, 5]: 13
bacteria count [3, 5]: 34.8
pH [3, 5]: 9.73
BSI [3, 6]: 17
bacteria count [3, 6]: 147
pH [3, 6]: 9.65
BSI [3, 7]: 67
bacteria count [3, 7]: 22.7
pH [3, 7]: 9.62
BSI [3, 8]: 50
bacteria count [3, 8]: 5.77
pH [3, 8]: 9.58
BSI [3, 9]: 4
bacteria count [3, 9]: 2930
pH [3, 9]: 9.77
bacteria count ([3]; 0.50% NBDA, 32° C., after 1 mo): 9.47
bacteria count ([3]; 0.50% NBDA, 32° C., after 1 wk): 81
bacteria count ([3]; 0.50% NBDA, 32° C., after 3 mo): 5.66
bacteria count ([3]; 0.50% NBDA, 32° C., after 1 d): 215
bacteria count ([3]; 0.50% NBDA, 60° C., after 1 mo): 126
bacteria count ([3]; 0.50% NBDA, 60° C., after 1 wk): 276
bacteria count ([3]; 0.50% NBDA, 60° C., after 3 mo): 4.2
bacteria count ([3]; 0.50% NBDA, 60° C., after 1 d): 420
BSI [3, 10]: 10
bacteria count [3, 10]: 39.1
pH [3, 10]: 9.86
BSI [3, 11]: 24
bacteria count [3, 11]: 183
pH [3, 11]: 9.89
BSI [3, 12]: 60
bacteria count [3, 12]: 3.77
pH [3, 12]: 9.93
BSI [3, 13]: 83
bacteria count [3, 13]: 1.36
pH [3, 13]: 9.67
BSI [3, 14]: 6
bacteria count [3, 14]: 1530
pH [3, 14]: 10.2
bacteria count ([3]; 1.00% NBDA, 32° C., after 1 mo): 17.9
bacteria count ([3]; 1.00% NBDA, 32° C., after 1 wk): 13.5
bacteria count ([3]; 1.00% NBDA, 32° C., after 3 mo): 0.94
bacteria count ([3]; 1.00% NBDA, 32° C., after 1 d): 338
bacteria count ([3]; 1.00% NBDA, 60° C., after 1 mo): 202
bacteria count ([3]; 1.00% NBDA, 60° C., after 1 wk): 387
bacteria count ([3]; 1.00% NBDA, 60° C., after 3 mo): 9.3
bacteria count ([3]; 1.00% NBDA, 60° C., after 1 d): 244
effectiveness as sole biocide additive ([3]; concentration 0.5%, long term, RT, 32° C. and 60° C.): highly effective as the sole biocide additive
bacteria count 1 mo after adding NBDA [4, 15]: 22
bacteria count 1 wk after adding NBDA [4, 15]: 9.9
bacteria count 3 mo after adding NBDA [4, 15]: 3
bacteria count 1 d after adding NBDA [4, 15]: 17.6
bacteria count 1 mo after adding NBDA [4, 16]: 77.1
bacteria count 1 wk after adding NBDA [4, 16]: 1.8
bacteria count 3 mo after adding NBDA [4, 16]: 64
bacteria count 6 mo after adding NBDA [4, 16]: 15.5
bacteria count 1 d after adding NBDA [4, 16]: 7.7
bacteria count 1 mo after adding NBDA [4, 17]: 0.93
bacteria count 1 wk after adding NBDA [4, 17]: 239
bacteria count 3 mo after adding NBDA [4, 17]: 28
bacteria count 6 mo after adding NBDA [4, 17]: 62
bacteria count 9 mo after adding NBDA [4, 17]: 15.4
bacteria count 1 d after adding NBDA [4, 17]: 31.7
bacteria count 1 mo after adding NBDA [4, 18]: 0.93
bacteria count 1 wk after adding NBDA [4, 18]: 25
bacteria count 3 mo after adding NBDA [4, 18]: 1.4
bacteria count 6 mo after adding NBDA [4, 18]: 1.1
bacteria count 9 mo after adding NBDA [4, 18]: 1.51
bacteria count 1 d after adding NBDA [4, 18]: 48.5
bacteria count 1 mo after adding NBDA [4, 19]: 24.2
bacteria count 1 wk after adding NBDA [4, 19]: 48.1
bacteria count 3 mo after adding NBDA [4, 19]: 54.6
bacteria count 6 mo after adding NBDA [4, 19]: 53
bacteria count 9 mo after adding NBDA [4, 19]: 21.9
bacteria count 1 d after adding NBDA [4, 19]: 24.3
bacteria count 1 mo after adding NBDA [4, 20]: 19.5
bacteria count 1 wk after adding NBDA [4, 20]: 42.1
bacteria count 3 mo after adding NBDA [4, 20]: 26
bacteria count 6 mo after adding NBDA [4, 20]: 9
bacteria count 9 mo after adding NBDA [4, 20]: 15.7
bacteria count 1 d after adding NBDA [4, 20]: 17.2
bacteria count 1 mo after adding NBDA [4, 21]: 74.9
bacteria count 1 wk after adding NBDA [4, 21]: 4.5
bacteria count 3 mo after adding NBDA [4, 21]: 28.9
bacteria count 6 mo after adding NBDA [4, 21]: 7.8
bacteria count 1 d after adding NBDA [4, 21]: 29.7
bacteria count 1 mo after adding NBDA [4, 22]: 25.2
bacteria count 1 wk after adding NBDA [4, 22]: 7.2
bacteria count 3 mo after adding NBDA [4, 22]: 13
bacteria count 6 mo after adding NBDA [4, 22]: 39.9
bacteria count 1 d after adding NBDA [4, 22]: 17.6
bacteria count 1 mo after adding NBDA [4, 23]: 83.4
bacteria count 1 wk after adding NBDA [4, 23]: 79
bacteria count 3 mo after adding NBDA [4, 23]: 13.3
bacteria count 6 mo after adding NBDA [4, 23]: 63.8
bacteria count 9 mo after adding NBDA [4, 23]: 35
bacteria count 1 d after adding NBDA [4, 23]: 4.2
bacteria count 1 mo after adding NBDA [4, 24]: 31.6
bacteria count 1 wk after adding NBDA [4, 24]: 180
bacteria count 3 mo after adding NBDA [4, 24]: 7.4
bacteria count 6 mo after adding NBDA [4, 24]: 11.2
bacteria count 9 mo after adding NBDA [4, 24]: 57.7
bacteria count 1 d after adding NBDA [4, 24]: 110
bacteria count after 4 mo after addition of NBDA ([4]; PVB dispersion FX1, 32° C.): 10.1
bacteria count after 4 wk after addition of NBDA ([4]; PVB dispersion FX1, 32° C.): 3.7
bacteria count after 6 mo after addition of NBDA ([4]; PVB dispersion FX1, 32° C.): 1
bacteria count after 8 wk after addition of NBDA ([4]; PVB dispersion FX1, 32° C.): 18.5
bacteria count after 9 mo after addition of NBDA ([4]; PVB dispersion FX1, 32° C.): 34
bacteria count after 12 mo after addition of NBDA ([4]; PVB dispersion FX1, 32° C.): 2.3
bacteria count after 4 mo after addition of NBDA ([4]; PVB dispersion FX2, 32° C.): 13.1
bacteria count after 4 wk after addition of NBDA ([4]; PVB dispersion FX2, 32° C.): 12.4
bacteria count after 6 mo after addition of NBDA ([4]; PVB dispersion FX2, 32° C.): 6.9
bacteria count after 8 wk after addition of NBDA ([4]; PVB dispersion FX2, 32° C.): 4.6
bacteria count after 9 mo after addition of NBDA ([4]; PVB dispersion FX2, 32° C.): 67.9
bacteria count after 12 mo after addition of NBDA ([4]; PVB dispersion FX2, 32° C.): 15.6
bacteria count after 4 mo after addition of NBDA ([4]; PVB dispersion FX6, 32° C.): 9.1
bacteria count after 4 wk after addition of NBDA ([4]; PVB dispersion FX6, 32° C.): 64.3
bacteria count after 6 mo after addition of NBDA ([4]; PVB dispersion FX6, 32° C.): 52.1
bacteria count after 8 wk after addition of NBDA ([4]; PVB dispersion FX6, 32° C.): 12.1
bacteria count after 9 mo after addition of NBDA ([4]; PVB dispersion FX6, 32° C.): 7.3
bacteria count after 12 mo after addition of NBDA ([4]; PVB dispersion FX6, 32° C.): 367
bacteria count after 4 mo after addition of NBDA ([4]; PVB dispersion WX1, 32° C.): 8.1
bacteria count after 4 wk after addition of NBDA ([4]; PVB dispersion WX1, 32° C.): 38.4
bacteria count after 6 mo after addition of NBDA ([4]; PVB dispersion WX1, 32° C.): 5
bacteria count after 8 wk after addition of NBDA ([4]; PVB dispersion WX1, 32° C.): 4.6
bacteria count after 9 mo after addition of NBDA ([4]; PVB dispersion WX1, 32° C.): 8.9
bacteria count after 12 mo after addition of NBDA ([4]; PVB dispersion WX1, 32° C.): 16.8
bacteria count after 4 mo after addition of NBDA ([4]; PVB dispersion WX25, 32° C.): 68
bacteria count after 4 wk after addition of NBDA ([4]; PVB dispersion WX25, 32° C.): 94
bacteria count after 6 mo after addition of NBDA ([4]; PVB dispersion WX25, 32° C.): 170
bacteria count after 8 wk after addition of NBDA ([4]; PVB dispersion WX25, 32° C.): 82
bacteria count after 9 mo after addition of NBDA ([4]; PVB dispersion WX25, 32° C.): 238
bacteria count after 12 mo after addition of NBDA ([4]; PVB dispersion WX25, 32° C.): 181
